This is an account of results in patent US10010525B2, “Methods of inducing anesthesia” (The Regents of the University of California, priority 2012, dated 2018).

Test [1] deals with T1, NMDA (NR1/NR2A) receptors (Rattus norvegicus, UniProt P35439+Q00959).
T1 construct: expressed in transfected cells; host or cells: Xenopus laevis oocytes (RNA injection, 1:1)
The test is described as follows: NMDA receptor two-electrode voltage clamp in oocytes at saturated drug concentration. The test is classed as cell-based. To be noted: for NMDA % Direct Effect: drug response without receptor agonist; for NMDA % Direct Effect / NMDA % Agonist Effect: percent of control agonist peak, mean ±SEM, 5-6 oocytes, saturated drug; for NMDA % Agonist Effect: drug with glutamate and glycine; for NMDA Drug Response: drug+agonist versus control agonist peak; for direct effect on NMDA receptors (in words): without glutamate and glycine agonist. From the text:
(§1) GABAA (α1β2γ2s) or NMDA (NR1/NR2A) receptors were expressed in oocytes and studied using standard two-electrode voltage clamp techniques. Hydrocarbons from 14 different organic functional groups were studied at saturated concentrations, and compounds within each group differed only by the carbon number at the ω-position or within a saturated ring. An effect on GABAA or NMDA receptors was defined as a 10% or greater reversible current change from baseline that was statistically different from zero.
(§2) An ovary from tricaine-anesthetized Xenopus laevis frogs was surgically removed using a protocol approved by the Institutional Animal Care and Use Committee at the University of California, Davis. Following manual disruption of the ovarian lobule septae, the ovary was incubated in 0.2% Type I collagenase (Worthington Biochemical, Lakewood, N.J.) to defolliculate oocytes which were washed and stored in fresh and filtered modified Barth's solution composed of 88 mM NaCl, 1 mM KCl, 2.4 mM NaHCO3, 20 mM HEPES, 0.82 mM MgSO4, 0.33 mM Ca(NO3)2, 0.41 mM CaCl2, 5 mM sodium pyruvate, gentamycin, penicillin, streptomycin, and corrected to pH=7.4. All salts and antibiotics were A.C.S. grade (Fisher Scientific, Pittsburgh, Pa.).
(§3) Clones used were provided as a gift from Dr. R. A. Harris (University of Texas, Austin) and were sequenced and compared to references in the National Center for Biotechnology Information database to confirm the identity of each gene. GABAA receptors were expressed using clones for the human GABAA α1 and the rat GABAA β2 and γ2s subunits in pCIS-II vectors. […] In separate oocytes, glutamate receptors were expressed using rat NMDA NR1 clones in a pCDNA3 vector and rat NMDA NR2A clones in a Bluescript vector. RNA encoding each subunit was prepared using a commercial transcription kit (T7 mMessage mMachine, Ambion, Austin, Tex.) was mixed in a 1:1 ratio, and 1-10 ng of total RNA was injected into oocytes and studied 1-2 days later.
Briefly, baseline perfusion solutions were the same as for GABAA with the substitution of equimolar BaCl2 for calcium salts and the addition of 0.1 mM EGTA; this constituted barium frog Ringer's solution (BaFR). Agonist solutions for NMDA studies also contained 0.1 mM glutamate (E) and 0.01 mM glycine (G) to constitute a BaFREG solution.
The syringe pump and perfusion chamber apparatus as well as the clamp holding potential and baseline-agonist exposure protocols were identical to that described for the GABAA studies. The same test compounds, concentrations, and preparative methods were used in NMDA voltage clamp studies as in the GABAA voltage clamp studies (Table 2).
(§4) Modulating drug responses were calculated as the percent of the control (baseline) peak as follows: 100·ID/IB, where ID and IB were the peak currents measured during agonist+drug and agonist baseline perfusions, respectively. When present, direct receptor activation by a drug was similarly calculated as a percent of the agonist response. […] A lack of receptor response (cut-off) was defined as a<10% change from baseline current that was statistically indistinguishable from zero using a two-tailed Student t-test.
Background: Two-electrode voltage clamp is typically applied to oocytes expressing channels or transporters.

The target in test [2] is T2, GABAA (α1β2γ2s) receptors (UniProt P14867+P18508+P63138).
T2 construct: expressed in transfected cells; host or cells: Xenopus laevis oocytes (intranuclear plasmid injection, α1:β2:γ2 = 1:1:10)
T2 sequence (P14867 28-456): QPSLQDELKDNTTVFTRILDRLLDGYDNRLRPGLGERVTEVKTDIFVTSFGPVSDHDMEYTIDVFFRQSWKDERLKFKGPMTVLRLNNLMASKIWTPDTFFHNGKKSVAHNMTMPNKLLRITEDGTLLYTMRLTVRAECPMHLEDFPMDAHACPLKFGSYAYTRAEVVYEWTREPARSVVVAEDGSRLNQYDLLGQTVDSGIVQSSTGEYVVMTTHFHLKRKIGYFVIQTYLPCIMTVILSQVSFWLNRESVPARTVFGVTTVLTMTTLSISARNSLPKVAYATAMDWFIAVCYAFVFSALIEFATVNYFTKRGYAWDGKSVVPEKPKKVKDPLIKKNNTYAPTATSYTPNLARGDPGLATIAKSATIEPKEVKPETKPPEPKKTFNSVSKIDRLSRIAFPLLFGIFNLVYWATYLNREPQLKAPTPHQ
T2 sequence (P63138 25-474 limits assumed): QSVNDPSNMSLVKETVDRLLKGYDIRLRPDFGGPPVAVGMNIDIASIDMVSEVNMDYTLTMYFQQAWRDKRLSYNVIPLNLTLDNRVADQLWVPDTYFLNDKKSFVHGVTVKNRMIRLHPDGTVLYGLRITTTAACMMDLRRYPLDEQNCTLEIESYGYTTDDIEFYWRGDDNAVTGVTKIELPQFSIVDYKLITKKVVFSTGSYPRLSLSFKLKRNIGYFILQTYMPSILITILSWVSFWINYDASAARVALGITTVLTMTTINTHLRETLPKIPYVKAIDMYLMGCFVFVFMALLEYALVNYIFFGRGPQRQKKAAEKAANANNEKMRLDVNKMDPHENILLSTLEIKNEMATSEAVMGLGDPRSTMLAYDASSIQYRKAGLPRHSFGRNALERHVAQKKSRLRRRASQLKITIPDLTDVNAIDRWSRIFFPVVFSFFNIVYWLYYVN
T2 sequence (P18508 39-466): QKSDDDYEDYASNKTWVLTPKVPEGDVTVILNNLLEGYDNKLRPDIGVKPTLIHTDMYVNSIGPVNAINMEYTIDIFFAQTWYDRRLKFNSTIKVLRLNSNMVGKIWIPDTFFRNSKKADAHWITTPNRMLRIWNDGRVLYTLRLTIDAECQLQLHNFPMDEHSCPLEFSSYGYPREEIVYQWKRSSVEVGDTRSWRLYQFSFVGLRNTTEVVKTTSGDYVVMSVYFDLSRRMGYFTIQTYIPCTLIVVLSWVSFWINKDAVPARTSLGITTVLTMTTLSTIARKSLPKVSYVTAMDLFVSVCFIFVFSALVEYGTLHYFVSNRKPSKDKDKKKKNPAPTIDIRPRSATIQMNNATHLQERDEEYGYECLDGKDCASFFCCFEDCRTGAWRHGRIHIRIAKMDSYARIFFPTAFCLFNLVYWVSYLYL
Put plainly: GABAA receptor two-electrode voltage clamp in oocytes at saturated drug concentration. The class given is cell-based, human α1, rat β2 and γ2s. The conditions noted are these: for GABAA % Direct Effect: drug response without receptor agonist; for GABAA % Direct Effect / GABAA % Agonist Effect: percent of control agonist peak, mean ±SEM, 5-6 oocytes, saturated drug; for GABAA % Agonist Effect: drug with γ-aminobutyric acid; for GABAA Drug Response: drug+agonist versus control agonist peak.
Source text: as §1, §2, §3
Oocytes were studied in a 250 μL linear-flow perfusion chamber with solutions administered by syringe pump at 1.5 ml/min with gastight glass syringes and Teflon tubing. Oocyte GABAA currents were studied using standard two-electrode voltage clamping techniques at a holding potential of […] using a 250 μL channel linear-flow perfusion chamber with solutions administered by syringe pump at 1.5 mL/min.
After FR perfusion for 5 min, oocytes were exposed to 30 sec FR-GABA followed by another 5 min FR washout; this was repeated until stable GABAA-elicited peaks were obtained. Next, FR containing a saturated solution of the study drug (Table 2)—or for gaseous study compounds a vapor pressure equal to 90% of barometric pressure with balance oxygen—was used to perfuse the oocyte chamber for 2 min followed by perfusion with a FR-GABA solution containing the identical drug concentration for 30 sec.
as §4

[3] abbreviates: saturating aqueous concentration.

T1 sequence (Q00959 23-1464, other chains not shown): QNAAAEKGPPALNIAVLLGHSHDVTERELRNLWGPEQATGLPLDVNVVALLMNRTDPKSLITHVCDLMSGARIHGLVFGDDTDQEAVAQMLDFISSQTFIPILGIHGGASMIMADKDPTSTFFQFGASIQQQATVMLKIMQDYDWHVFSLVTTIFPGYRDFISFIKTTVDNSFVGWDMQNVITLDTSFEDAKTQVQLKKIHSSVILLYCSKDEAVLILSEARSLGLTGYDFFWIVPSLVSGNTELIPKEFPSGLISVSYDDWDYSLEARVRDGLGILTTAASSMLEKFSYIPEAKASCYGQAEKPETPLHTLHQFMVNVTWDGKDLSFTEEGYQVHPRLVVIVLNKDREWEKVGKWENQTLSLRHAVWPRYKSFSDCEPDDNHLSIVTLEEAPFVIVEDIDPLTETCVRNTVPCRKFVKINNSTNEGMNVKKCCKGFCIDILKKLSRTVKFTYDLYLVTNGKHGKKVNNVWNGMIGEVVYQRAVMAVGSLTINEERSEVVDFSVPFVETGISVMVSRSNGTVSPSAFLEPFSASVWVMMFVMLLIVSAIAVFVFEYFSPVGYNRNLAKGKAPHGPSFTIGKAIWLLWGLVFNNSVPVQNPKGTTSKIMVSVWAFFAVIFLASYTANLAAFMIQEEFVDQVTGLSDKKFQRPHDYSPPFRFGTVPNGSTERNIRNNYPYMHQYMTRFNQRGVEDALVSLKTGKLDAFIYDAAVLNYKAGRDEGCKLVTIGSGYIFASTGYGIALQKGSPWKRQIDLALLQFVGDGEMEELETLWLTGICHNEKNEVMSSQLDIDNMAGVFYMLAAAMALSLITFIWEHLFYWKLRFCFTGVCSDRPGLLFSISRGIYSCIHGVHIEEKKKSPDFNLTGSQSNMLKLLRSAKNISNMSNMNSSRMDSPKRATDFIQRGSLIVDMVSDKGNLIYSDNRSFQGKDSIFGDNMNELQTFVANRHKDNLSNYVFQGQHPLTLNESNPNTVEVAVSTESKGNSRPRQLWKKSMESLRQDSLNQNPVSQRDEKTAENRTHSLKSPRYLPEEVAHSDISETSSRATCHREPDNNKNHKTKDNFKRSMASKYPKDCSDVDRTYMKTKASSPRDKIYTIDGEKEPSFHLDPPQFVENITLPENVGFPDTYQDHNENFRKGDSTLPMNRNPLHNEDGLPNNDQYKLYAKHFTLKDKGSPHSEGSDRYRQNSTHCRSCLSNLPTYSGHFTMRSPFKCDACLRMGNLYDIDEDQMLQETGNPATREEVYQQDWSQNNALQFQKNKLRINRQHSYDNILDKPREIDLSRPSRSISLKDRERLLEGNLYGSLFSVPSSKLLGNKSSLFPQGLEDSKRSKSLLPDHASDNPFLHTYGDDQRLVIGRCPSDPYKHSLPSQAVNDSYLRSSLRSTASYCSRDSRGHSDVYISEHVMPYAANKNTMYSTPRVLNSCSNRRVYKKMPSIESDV

Turning to `CCc1cccc(CC)c1` [1,3-diethylbenzene], in test [1], the “NMDA % Direct Effect” value was “none”, the “NMDA % Agonist Effect” value is 101 ± 2% and the “NMDA Drug Response” value is 0 (no response (0) for drug+agonist responses that differ by <10% from the control agonist peak). Further, in test [2], the “GABAA % Direct Effect” value is on record as “none”, the “GABAA % Agonist Effect” value came to 305 ± 24% and the “GABAA Drug Response” value is “+ (potentiation (+) for drug+agonist responses greater than the control agonist peak)”.

In the case of `Cc1cccc(C)c1` [1,3-dimethylbenzene], in test [1], the “NMDA % Direct Effect” value is given as “none” and the “NMDA % Agonist Effect” value is given as 58 ± 3%. In test [2], the “GABAA % Direct Effect” value is “none”, the “GABAA % Agonist Effect” value was determined as 366 ± 21% and the “GABAA Drug Response” value is listed as “+ (potentiation (+) for drug+agonist responses greater than the control agonist peak)”.

Take `CCCCCCSCC` [1-(ethylthio)-hexane]: in test [1], the “NMDA % Direct Effect” value is given as “none” and the “NMDA % Agonist Effect” value is 87 ± 1%. Further, in test [2], the “GABAA % Direct Effect” value was “none”, the “GABAA % Agonist Effect” value amounted to 350 ± 57% and the “GABAA Drug Response” value was “+ (potentiation (+) for drug+agonist responses greater than the control agonist peak)”.

Turning to `CCCCCCCCSCC` [1-(ethylthio)-octane], in test [1], the “NMDA % Direct Effect” value was “none”, the “NMDA % Agonist Effect” value is listed as 101 ± 1% and the “NMDA Drug Response” value is reported as 0 (no response (0) for drug+agonist responses that differ by <10% from the control agonist peak). For the same compound, in test [2], the “GABAA % Direct Effect” value is given as “none”, the “GABAA % Agonist Effect” value is on record as 120 ± 3% and the “GABAA Drug Response” value is “+ (potentiation (+) for drug+agonist responses greater than the control agonist peak)”.

For the compound `OCC(F)(F)C(F)(F)C(F)(F)C(F)(C(F)(F)F)C(F)(F)F` [1-Hexanol, 2,2,3,3,4,4,5,6,6,6-decafluoro-5-(trifluoromethyl)-], the “NMDA receptor modulation (in words)” value in test [1] (setting [3]) is on record as “weak NMDA receptor antagonist”. Further, in test [2] (setting [3]), the “GABAA receptor modulation (in words)” value is reported as “GABA-A receptor agonist”.

Turning to `CCCCCCCCCCO` [1-decanol], in test [1], the “NMDA % Direct Effect” value is “none” and the “NMDA % Agonist Effect” value was determined as 70 ± 3%. In test [2], the “GABAA % Direct Effect” value was “none”, the “GABAA % Agonist Effect” value stood at 386 ± 20% and the “GABAA Drug Response” value is given as “+ (potentiation (+) for drug+agonist responses greater than the control agonist peak)”.

With `CCCCCCCCCCCCO` [1-dodecanol], in test [1], the “NMDA % Direct Effect” value is “none”, the “NMDA % Agonist Effect” value is on record as 98 ± 1% and the “NMDA Drug Response” value was 0 (no response (0) for drug+agonist responses that differ by <10% from the control agonist peak). Also, in test [2], the “GABAA % Direct Effect” value is reported as “none”, the “GABAA % Agonist Effect” value came to 177 ± 4% and the “GABAA Drug Response” value is “+ (potentiation (+) for drug+agonist responses greater than the control agonist peak)”.

For `CCCCCCCCCCCCCCCCCCCCN` [1-eicosanamine], in test [1], the “NMDA % Direct Effect” value is reported as “none”, the “NMDA % Agonist Effect” value was 108 ± 1% and the “NMDA Drug Response” value is 0 (no response (0) for drug+agonist responses that differ by <10% from the control agonist peak). Further, in test [2], the “GABAA % Direct Effect” value is “none”, the “GABAA % Agonist Effect” value worked out at 166 ± 7% and the “GABAA Drug Response” value is recorded as “+ (potentiation (+) for drug+agonist responses greater than the control agonist peak)”.

As to `CCCCCCCCF` [1-fluoroctane], in test [1], the “NMDA % Direct Effect” value is “none”, the “NMDA % Agonist Effect” value came to 98 ± 1% and the “NMDA Drug Response” value is listed as 0 (no response (0) for drug+agonist responses that differ by <10% from the control agonist peak). Moreover, in test [2], the “GABAA % Direct Effect” value is “none”, the “GABAA % Agonist Effect” value came to 182 ± 18% and the “GABAA Drug Response” value is on record as “+ (potentiation (+) for drug+agonist responses greater than the control agonist peak)”.

`CN1CCOCC1` [4-methylmorpholine]: the “direct effect on NMDA receptors (in words)” value in test [1] is listed as “direct activation of NMDA receptors”.

Take N-methylpiperadine: the “direct effect on NMDA receptors (in words)” value in test [1] is given as “direct activation of NMDA receptors”.
